# Results published in patent US9040691B2, “Hydroxymethylaryl-substituted pyrrolotriazines as ALK1 inhibitors” (BAYER INTELLECTUAL PROPERTY GMBH, priority 2011, dated 2015).
# What was measured:
# [1] = system: laser-induced choroidal neovascularisation; test: Topical efficacy in the laser-induced choroidal neovascularization (CNV) model; type: in vivo, rat; details: Brown-Norway rats, eye drops 10 μl of 20 mg/ml twice daily; for vascular leakage [HRA score]: angiography day 21, score 0-3; for choroidal neovascularisation lesion size: day 23
# Method: B-4. Topical Efficacy in the Laser-Induced Choroidal Neovascularization (CNV) Model
# For this purpose, 65 pigmented Brown-Norway rats with no visible sign of ocular defects were selected and randomly assigned to six different groups (for n-numbers, see table below). On day 0, the animals were anaesthetized by an intraperitoneal injection (15 mg/kg xylazine and 80 mg/kg ketamine). After instillation of one drop of 0.5% tropicamide to dilate the pupils, choroidal neovascularisation was induced by burning six holes into the retina (disruption of Bruch's membrane) of one eye per animal using a 532 nm argon laser (lesion size: 50 μm; laser intensity: 150 mW; stimulus duration: 100 ms). Test compounds and vehicle controls were topically administered twice daily by instilling respective eye drops into the affected eye. The test compounds were dosed as follows: 10 μl of an eye drop formulation containing 20 mg/ml of the respective test compound suspended either in 100% liquid paraffin or in an aqueous vehicle (HPMC 15 cP 3.5%, polysorbate 80 0.5%, NaCl 0.9% in water) were applied to the affected eye twice daily at a 10 to 14 hour interval during the complete observation period of 23 days. Control animals received the respective vehicle (100% liquid paraffin or aqueous vehicle) topically twice daily. The body weight of all animals was recorded before the start and once daily during the study.
# An angiography was performed on day 21 using a fluorescence fundus camera (Kowe). Here, after anaesthesia and pupillary dilation, 10% sodium fluorescein dye was injected subcutaneously, and images were recorded 2 and 10 min after dye injection. The vascular leakage of the fluorescein on the angiograms was evaluated by three different examiners who were blinded for group allocation (test compound versus vehicle), and scored with 0 (no leakage) to 3 (strongly stained).
# On day 23, animals were sacrificed, and eyes were harvested and fixed in 4% paraformaldehyde solution for 1 hour at room temperature. After washing, the retina was carefully peeled, washed, blocked and stained with a FITC-isolectine B4 antibody in order to visualize the vasculature. Then, the sclera-choroids were flat-mounted and examined under a fluorescence microscope (Keyence Biozero) at 488 nm excitation wavelength. The area (in μm^2) of choroidal neovascularization was measured using ImageTool software.
# ALK1 kinase = ALK1 kinase (Homo sapiens (Human), UniProt P37023); test: ALK1 kinase assay (ProQinase protocol); type: biochemical; details: ProQinase radiometric assay, casein, γ-33P-ATP
# ALK1 kinase, sequence (P37023 22-503): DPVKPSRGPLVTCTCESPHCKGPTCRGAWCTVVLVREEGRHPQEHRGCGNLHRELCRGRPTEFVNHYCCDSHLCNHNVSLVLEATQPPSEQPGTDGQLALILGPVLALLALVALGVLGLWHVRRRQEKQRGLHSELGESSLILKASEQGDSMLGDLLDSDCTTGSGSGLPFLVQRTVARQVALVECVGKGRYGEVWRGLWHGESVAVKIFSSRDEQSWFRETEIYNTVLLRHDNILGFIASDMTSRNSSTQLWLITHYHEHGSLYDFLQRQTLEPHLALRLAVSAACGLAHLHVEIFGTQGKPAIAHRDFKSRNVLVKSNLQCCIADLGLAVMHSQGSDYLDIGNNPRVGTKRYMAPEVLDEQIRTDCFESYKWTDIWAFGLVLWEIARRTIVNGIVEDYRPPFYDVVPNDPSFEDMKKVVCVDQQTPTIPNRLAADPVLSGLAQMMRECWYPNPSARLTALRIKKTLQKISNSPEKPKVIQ
# Method: B-1b. ALK1 Kinase Assay (ProQinase Protocol)
# ALK1 (Invitrogen, Carlsbad, Calif., USA) kinase activity was measured at ProQinase GmbH (Freiburg, Germany) in a radiometric assay using γ-^33P-ATP and casein (Sigma, St. Louis, Mo., USA) as substrate in 96-well PerkinElmer FlashPlates™ (Boston, Mass., USA). The compounds were tested at 10 concentrations in the range of 1×10^−4 M to 3×10^−9 M in a total volume of 50 μl with a final DMSO concentration of 1% each. The assay components were mixed in the order: • 20 μl assay buffer (70 mM HEPES-NaOH, pH 7.5, 3 mM MgCl2, 3 mM MnCl2, 2 μM sodium orthovanadate, 1.2 mM DTT); • 5 μl γ-^33P-ATP (1.0 μM in water, approx. 6×10^5 cpm per well); • 5 μl test compound solution (in 10% DMSO); • […] (200 μg/ml, 1.0 μg/50 μl final concentration)/enzyme (4 μg/ml, 20 ng/50 μl=5.5 nM final concentration) solution (1:1 mixture).
# The reaction mixtures were incubated at 30° C. for 60 minutes and stopped by adding 50 μl 2% (v/v) phosphoric acid. The plates were aspirated and washed twice with 200 μl 0.9% (w/v) sodium chloride. Incorporation of ^33Pi was determined with a microplate scintillation counter (Microbeta, Wallac). All assays were performed using a BecicmanCoulter/SAGIAN™ Core System.
# Median values obtained from unspecific substrate binding of labelled. ATP were set as background level, while median values measured in the absence of any inhibitor were considered to reflect full activity of ALK1 kinase. The background activity (ba) was subtracted from the full activity (fa) value as well as from the values obtained from the test compound containing samples (test compound activity, tea). The residual activity in the latter was calculated as follows: residual activity (%)=100×[(tca−ba)/(fa−ba)]
# The residual activities for each concentration and the compound IC50 values were calculated using Quattro Workflow V3.1.0 (Quattro Research GmbH, Munich, Germany). The fitting model for the IC50 determinations was “Sigmoidal response (variable slope)” with parameters “top” fixed at 100% and “bottom” at 0%. The fitting method used was a least-squares fit.
# [2] = system: laser-induced choroidal neovascularisation; test: Systemic efficacy in the laser-induced choroidal neovascularization (CNV) model; type: in vivo, rat; details: Brown-Norway rats, i.p. once daily 50 mg/kg days 0-1 then 20 mg/kg
# Method: B-3. Systemic Efficacy in the Laser-Induced Choroidal Neovascularization (CNV) Model
# For this purpose, 16 pigmented Brown-Norway rats with no visible sign of ocular defects were selected and randomly divided into two groups of eight animals each. On day 0, the animals were anaesthetized by an intraperitoneal injection (15 mg/kg xylazine and 80 mg/kg ketamine). After instillation of one drop of 0.5% tropicamide to dilate the pupils, choroidal neovascularisation was induced by executing six 75 μm-sized choroidal burns around the optic disc of the right eyes using a 532 nm argon laser photocoagulation at 150 mW for 100 ms. […] The body weight of all animals was recorded before the start and once daily during the study.
# An angiography was performed on day 21 using Heidelberg's Retinal Angiograph (HRA). After anaesthesia and pupillary dilation, 10% sodium fluorescein dye was injected subcutaneously, and images were recorded 10 min after dye injection. The vascular leakage of the fluorescein on the angiograms was evaluated by two examiners in a masked fashion and scored with 0 (no leakage) to 3 (strongly stained).
# After euthanasia on day 23, the eyes were harvested and fixed in 4% paraformaldehyde solution for 1 hour at room temperature. […] The flat-mounted preparations were examined under a fluorescence microscope (Apotom) at 488 nm excitation wavelength. […]
SMILES,vascular leakage [HRA score] ([1]; aqueous vehicle),choroidal neovascularisation lesion size ([1]; aqueous vehicle),vascular leakage [HRA score] ([1]; paraffin vehicle),choroidal neovascularisation lesion size ([1]; paraffin vehicle),IC50 (ALK1 kinase),"vascular leakage [angiography score] ([2]; angiography day 21, score 0-3)",choroidal neovascularisation lesion volume ([2]; day 23)
"Nc1ncnn2c1c(-c1cc(F)c(CO)c(F)c1)cc2[C@H]1CC[C@H](O)CC1 [Example 7, trans-4-[4-Amino-5-[3,5-difluoro-4-(hydroxymethyl)phenyl]pyrrolo[2,1-f][1,2,4]triazin-7-yl]-cyclohexanol]",1.49 ± 0.24 HRA score,6.14 ± 1.60 μm^2 × 10 000,1.52 ± 0.21 HRA score,6.21 ± 0.99 μm^2 × 10 000,6.7 nM,,
"Nc1ncnn2c([C@@H]3CCCNC3)cc(-c3cc(F)c(CO)c(F)c3)c12 [Example 11, (4-{4-Amino-7-[(3R)-piperidin-3-yl]pyrrolo[2,1-f][1,2,4]triazin-5-yl}-2,6-difluorophenyl)methanol]",1.66 ± 0.29 HRA score,5.50 ± 1.38 μm^2 × 10 000,1.41 ± 0.29 HRA score,6.45 ± 1.63 μm^2 × 10 000,3 nM,0.68 ± 0.35 angiography score,3.48 ± 0.40 μm^3 × 100 000
